Source: patent publication US8022102B2, “Unsaturated tetracyclic tetrahydrofuran derivatives” (Janssen Pharmaceutica, NV, priority 2004, dated 2011)
Like-named read-outs stand apart in the source and are kept apart here.

Columns and labels:
[1] = biological target: T1, human cloned 5-HT2A receptor (Homo sapiens, UniProt P28223); assay: In vitro binding affinity for 5-HT2A receptor (radioligand binding); settings: read-out: h-5HT2A (converted)
T1 construct: expressed in transfected cells; host or cells: L929 cells
T1 sequence (P28223 whole entry): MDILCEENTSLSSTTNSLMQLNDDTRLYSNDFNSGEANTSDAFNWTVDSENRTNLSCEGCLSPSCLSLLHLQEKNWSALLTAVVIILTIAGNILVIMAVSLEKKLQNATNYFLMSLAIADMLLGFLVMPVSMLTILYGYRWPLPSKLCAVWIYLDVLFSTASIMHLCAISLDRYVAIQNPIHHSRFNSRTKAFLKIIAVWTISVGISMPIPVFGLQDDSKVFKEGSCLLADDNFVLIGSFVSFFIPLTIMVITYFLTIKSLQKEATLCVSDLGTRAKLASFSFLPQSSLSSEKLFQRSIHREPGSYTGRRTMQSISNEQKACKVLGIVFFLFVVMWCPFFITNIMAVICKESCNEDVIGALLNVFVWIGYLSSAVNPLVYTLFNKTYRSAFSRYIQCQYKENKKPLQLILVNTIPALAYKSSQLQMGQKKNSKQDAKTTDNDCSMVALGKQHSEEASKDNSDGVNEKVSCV
Experimental: During the incubation, the radioligands bind to the receptor. When equilibrium of binding is reached, the receptor bound radioactivity is separated from the non-bound radioactivity, and the receptor bound activity is counted. The interaction of the test compounds with the receptors is assessed in competition binding experiments. Various concentrations of the test compound are added to the incubation mixture containing the tissue preparation and the radioligand. Binding of the radioligand will be inhibited by the test compound in proportion to its binding affinity and its concentration. The affinities of the compounds for the 5-HT2 receptors were measured by means of radioligand binding studies conducted with: (a) human cloned 5-HT2A receptor, expressed in L929 cells using [^125I]R91150 as radioligand and (b) human cloned 5-HT2C receptor, expressed in CHO cells using [^3H]mesulergine as radioligand.

[2] = biological target: T2, human cloned 5-HT2C receptor (Homo sapiens, UniProt P28335); assay: In vitro binding affinity for 5-HT2C receptor (radioligand binding); settings: read-out: h-5HT2C (converted)
T2 construct: expressed in transfected cells; host or cells: CHO cells
T2 sequence (P28335 33-458): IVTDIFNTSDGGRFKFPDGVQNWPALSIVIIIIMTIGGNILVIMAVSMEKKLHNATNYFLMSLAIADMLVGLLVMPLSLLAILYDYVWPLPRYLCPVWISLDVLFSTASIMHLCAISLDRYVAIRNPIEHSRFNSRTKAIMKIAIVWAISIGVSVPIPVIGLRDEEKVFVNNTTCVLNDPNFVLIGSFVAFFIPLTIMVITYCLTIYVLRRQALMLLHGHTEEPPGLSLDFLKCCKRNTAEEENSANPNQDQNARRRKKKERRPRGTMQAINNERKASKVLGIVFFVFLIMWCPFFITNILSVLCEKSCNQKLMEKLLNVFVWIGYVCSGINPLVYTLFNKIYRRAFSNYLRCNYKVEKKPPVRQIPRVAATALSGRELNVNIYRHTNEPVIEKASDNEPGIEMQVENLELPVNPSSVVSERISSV
Experimental: During the incubation, the radioligands bind to the receptor. When equilibrium of binding is reached, the receptor bound radioactivity is separated from the non-bound radioactivity, and the receptor bound activity is counted. The interaction of the test compounds with the receptors is assessed in competition binding experiments. Various concentrations of the test compound are added to the incubation mixture containing the tissue preparation and the radioligand. Binding of the radioligand will be inhibited by the test compound in proportion to its binding affinity and its concentration.

[3] = biological target: T3, NET (Rattus norvegicus, UniProt Q9WTR4); assay: In vitro determination of NET reuptake inhibition ([3H]Nixosetine binding, rat brain cortex); settings: rat brain cortex, [3H]Nixosetine; read-out: NET Reuptake Inhibition (converted)
T3 construct: Cortex from rat brain was collected and homogenised; from tissue; host or cells: rat brain cortex
T3 sequence (Q9WTR4 1-597): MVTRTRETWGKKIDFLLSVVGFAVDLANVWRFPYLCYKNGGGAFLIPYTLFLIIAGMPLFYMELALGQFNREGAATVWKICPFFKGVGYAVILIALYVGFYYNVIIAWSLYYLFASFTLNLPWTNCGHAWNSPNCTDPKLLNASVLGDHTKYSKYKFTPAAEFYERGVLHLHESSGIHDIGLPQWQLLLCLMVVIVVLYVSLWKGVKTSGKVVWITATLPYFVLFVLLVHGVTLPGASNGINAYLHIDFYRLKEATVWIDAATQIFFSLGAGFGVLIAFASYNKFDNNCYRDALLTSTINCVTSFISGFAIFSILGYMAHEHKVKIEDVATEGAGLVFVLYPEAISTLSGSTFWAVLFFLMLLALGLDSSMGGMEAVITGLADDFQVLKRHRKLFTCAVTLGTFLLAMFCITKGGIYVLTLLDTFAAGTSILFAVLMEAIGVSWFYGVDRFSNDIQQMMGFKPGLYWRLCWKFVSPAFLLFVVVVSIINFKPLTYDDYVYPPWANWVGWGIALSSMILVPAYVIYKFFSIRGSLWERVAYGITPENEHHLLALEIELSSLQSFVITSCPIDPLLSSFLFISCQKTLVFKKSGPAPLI
Experimental: Cortex from rat brain was collected and homogenised using an Ultra-Turrax T25 and a Dual homogeniser in ice-cold homogenising buffer containing Tris, NaCl and KCl (50 mM, 120 mM and 5 mM, respectively, pH 7.4) prior to dilution to an appropriate protein concentration optimised for specific and non-specific binding. […] Membrane-bound activity was detected by filtration through a Packard Filtermate harvester onto GF/B Unifilterplates, washed with ice-cold Tris-HCl buffer, containing NaCl and KCl (50 mM, 120 mM and 4 mM; pH 7.4; 6×0.5 ml). Filters were allowed to dry for 24 h before adding scintillation fluid. Scintillation fluid was allowed to saturate filters for 24 h before counting in a Topcount scintillation counter. Percentage specific bound and competition binding curves were calculated using S-Plus software (Insightful).

[4] = biological target: T4, human Dopamine D2L receptor (Homo sapiens, UniProt P14416); assay: In vitro binding affinity for human D2L receptor ([3H]Spiperone); settings: human D2L receptor-transfected CHO cell membranes, [3H]Spiperone; read-out: h-D2L (converted)
T4 construct: expressed in transfected cells; host or cells: CHO cells
T4 sequence (P14416 whole entry): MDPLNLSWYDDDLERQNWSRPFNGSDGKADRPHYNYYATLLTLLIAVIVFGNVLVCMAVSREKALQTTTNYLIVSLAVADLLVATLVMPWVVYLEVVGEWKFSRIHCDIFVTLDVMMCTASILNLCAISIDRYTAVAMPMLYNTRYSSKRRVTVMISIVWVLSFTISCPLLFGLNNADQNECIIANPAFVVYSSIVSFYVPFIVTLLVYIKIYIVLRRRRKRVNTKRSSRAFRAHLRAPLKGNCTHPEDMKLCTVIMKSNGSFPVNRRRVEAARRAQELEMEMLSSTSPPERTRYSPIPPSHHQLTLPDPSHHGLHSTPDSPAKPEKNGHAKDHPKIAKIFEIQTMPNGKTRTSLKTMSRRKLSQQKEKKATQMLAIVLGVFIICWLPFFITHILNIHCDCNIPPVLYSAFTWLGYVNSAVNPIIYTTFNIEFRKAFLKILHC
Experimental: Frozen membranes of human Dopamine D2L receptor-transfected CHO cells were thawed, briefly homogenised using an Ultra-Turrax T25 homogeniser and diluted in Tris-HCl assay buffer containing NaCl, CaCl2, MgCl2, KCl (50, 120, 2, 1, and 5 mM respectively, adjusted to pH 7.7 with HCl) to an appropriate protein concentration optimised for specific and non-specific binding. Radioligand [^3H]Spiperone (NEN, specific activity ˜70 Ci/mmol) was diluted in assay buffer at a concentration of 2 nmol/L. Prepared radioligand (50 μl), along with 50 μl of either the 10% DMSO control, Butaclamol (10^−6 mol/l final concentration), or compound of interest, was then incubated (30 min, 37° C.) with 400 μl of the prepared membrane solution. Membrane-bound activity was filtered through a Packard Filtermate harvester onto GF/B Unifilterplates and washed with ice-cold Tris-HCl buffer (50 mM; pH 7.7; 6×0.5 ml). Filters were allowed to dry before adding scintillation fluid and counting in a Topcount scintillation counter. Percentage specific bound and competition binding curves were calculated using S-Plus software (Insightful).

[5] = human cloned 5-HT2A receptor, radioligand binding
[6] = human cloned 5-HT2C receptor, radioligand binding

Row | SMILES | IC50 [1, 5] [nM] | IC50 [2, 6] [nM] | IC50 [3] [nM] | IC50 [4] [nM] | IC50 ([1]; human cloned 5-HT2A receptor expressed in L929 cells, [125I]R91150) [nM] | IC50 ([2]; human cloned 5-HT2C receptor expressed in CHO cells, [3H]mesulergine) [nM]
1 | CNC[C@@H]1CC2=C(O1)c1ccccc1[C@@H](C)c1ccccc12 (racemic) [Compound 9] | 100 | 50.1 | 79.4 | 3980 |  | 
2 | CNCC1CC2=C(O1)c1ccccc1C(C)c1ccccc12 (centres unmarked) [Compound 7] | 50.1 | 20 | 63.1 | 2000 |  | 
3 | CNCC1CC2=C(O1)c1ccccc1C(C)c1ccccc12 (centres unmarked) [Compound 10] |  | 25.1 | 50.1 | 1580 |  | 
4 | C=C1c2ccccc2C2=C(OC(CNC)C2)c2ccccc21 (centres unmarked) [Compound 11] | 39.8 | 20 | 25.1 | 1580 |  | 
5 | CNCC1CC2=C(O1)c1cc(F)ccc1Oc1ccccc12 (centres unmarked) [Compound 12] | 12.6 | 7.94 | 39.8 | 200 |  | 
6 | CN(C)CC1CC2=C(O1)c1ccccc1N(C)c1ccccc12 (centres unmarked) [Compound 29] | 316 | 126 | 79.4 | 6310 |  | 
7 | CN(C)C1CCN(CC2CC3=C(O2)c2cc(F)ccc2Cc2ccccc23)C1 (centres unmarked) [Compound 35] |  | 15.8 | > 10000 | 39.8 |  | 
8 | Fc1ccc2c(c1)C1=C(CC(CN3CCC4(CC3)OCCO4)O1)c1ccccc1C2 (centres unmarked) [Compound 39] |  | 50.1 | > 10000 | 50.1 |  | 
9 | CS(=O)(=O)N1CCN(CC2CC3=C(O2)c2cc(F)ccc2Cc2ccccc23)CC1 (centres unmarked) [Compound 44] |  | 50.1 | > 10000 | 158 |  | 
10 | CCS(=O)(=O)N1CCN(CC2CC3=C(O2)c2cc(F)ccc2Cc2ccccc23)CC1 (centres unmarked) [Compound 46] |  | 200 | > 10000 | 501 |  | 
11 | CCS(=O)(=O)N1CCN(CC2CC3=C(O2)c2cc(F)ccc2Oc2ccccc23)CC1 (centres unmarked) [Compound 47] | 158 | 200 | 398 | 1260 |  | 
12 | O=C(C1CC1)N1CCN(CC2CC3=C(O2)c2cc(F)ccc2Oc2ccccc23)CC1 (centres unmarked) [Compound 58] |  | 158 | 1580 | 1580 |  | 
13 | COC(=O)CC(=O)N1CCN(CC2CC3=C(O2)c2cc(F)ccc2Oc2ccccc23)CC1 (centres unmarked) [Compound 60] |  | 79.4 | 1580 | 2000 |  | 
14 | O=C(Nc1ccccc1)N1CCN(CC2CC3=C(O2)c2cc(F)ccc2Oc2ccccc23)CC1 (centres unmarked) [Compound 84] | 31.6 | 50.1 |  | 1000 |  | 
15 | O=C(Nc1ccc(F)cc1)N1CCN(CC2CC3=C(O2)c2cc(F)ccc2Oc2ccccc23)CC1 (centres unmarked) [Compound 86] |  | 39.8 | > 10000 | 251 |  | 
16 | COc1ccc(NC(=O)N2CCN(CC3CC4=C(O3)c3cc(F)ccc3Oc3ccccc34)CC2)cc1 (centres unmarked) [Compound 90] | 6.31 | 31.6 |  | 501 |  | 
17 | COC(=O)CC(=O)N(C)C[C@H]1CC2=C(O1)c1cc(F)ccc1Cc1ccccc12 [Compound 112] | 200 | 63.1 | 7940 |  |  | 
18 | CNCC1CC2=C(O1)c1ccccc1Cc1cccc(F)c12 (centres unmarked) [Compound 132] | 10 | 3.98 | 63.1 |  |  | 

Continued, values first:

Row | IC50 [1, 5] [nM] | IC50 [2, 6] [nM] | IC50 [3] [nM] | IC50 [4] [nM] | IC50 ([1]; human cloned 5-HT2A receptor expressed in L929 cells, [125I]R91150) [nM] | IC50 ([2]; human cloned 5-HT2C receptor expressed in CHO cells, [3H]mesulergine) [nM] | SMILES
19 |  | 0.794 | 3.16 | 39.8 |  |  | CCNCC1CC2=C(O1)c1cc(F)ccc1Cc1ccccc12 (single isomer, unassigned) [Compound 15]
20 |  | 12.6 | 158 | 316 |  |  | CCNCC1CC2=C(O1)c1cc(F)ccc1Cc1ccccc12 (single isomer, unassigned) [Compound 16]
21 | 0.631 | 1 | 15.8 | 79.4 |  |  | CNCC1CC2=C(O1)c1cc(F)ccc1Cc1ccccc12 (centres unmarked) [Compound 2]
22 | 6.31 | 6.31 | 15.8 | 398 |  |  | CNC[C@H]1CC2=C(O1)c1cc(F)ccc1Cc1ccccc12 [Compound 3]
23 | 0.501 | 0.631 | 10 | 63.1 | 0.501 | 0.631 | CNC[C@@H]1CC2=C(O1)c1cc(F)ccc1Cc1ccccc12 [Compound 4]
24 |  | 1.26 | 100 | 25.1 |  |  | CCNCC1CC2=C(O1)c1cc(Br)ccc1Cc1ccccc12 (centres unmarked) [Compound 17]
25 |  | 1.58 | 501 | 31.6 |  |  | OCCNCC1CC2=C(O1)c1cc(Br)ccc1Cc1ccccc12 (centres unmarked) [Compound 20]
26 |  | 0.794 | 251 | 15.8 |  |  | CN(C)CC1CC2=C(O1)c1cc(Br)ccc1Cc1ccccc12 (centres unmarked) [Compound 21]
27 |  | 20 | 1580 | 79.4 |  |  | Fc1ccc2c(c1)C1=C(CC(CN3CCOCC3)O1)c1ccccc1C2 (centres unmarked) [Compound 43]
28 | 2 | 3.16 |  | 39.8 |  |  | COc1ccc(NC(=O)N2CCN(CC3CC4=C(O3)c3cc(F)ccc3Cc3ccccc34)CC2)cc1 (centres unmarked) [Compound 89]
29 | 6.31 | 31.6 |  | > 10000 |  |  | COc1ccccc1NC[C@@H]1CC2=C(O1)c1cc(F)ccc1Cc1ccccc12 [Compound 106]
30 | 3.16 | 1.58 |  | 794 |  |  | CN(CC(=O)c1ccccc1)C[C@H]1CC2=C(O1)c1cc(F)ccc1Cc1ccccc12 [Compound 114]
31 | 10 | 3.98 |  | 1260 |  |  | CN(CC(N)=O)C[C@H]1CC2=C(O1)c1cc(F)ccc1Cc1ccccc12 [Compound 115]
32 | 10 | 2 |  | 2510 |  |  | CN(CC(=O)N(C)C)C[C@H]1CC2=C(O1)c1cc(F)ccc1Cc1ccccc12 [Compound 117]
33 | 50.1 | 10 |  | 794 |  |  | CN(CC(=O)Nc1ccccc1)C[C@H]1CC2=C(O1)c1cc(F)ccc1Cc1ccccc12 [Compound 118]
34 | 31.6 | 25.1 |  | 7940 |  |  | COc1ccccc1NC(=O)CN(C)C[C@H]1CC2=C(O1)c1cc(F)ccc1Cc1ccccc12 [Compound 119]
35 | 2 | 2 |  | 50.1 |  |  | CNC(=O)/C=C/CN(C)C[C@H]1CC2=C(O1)c1cc(F)ccc1Cc1ccccc12 [Compound 123]
36 | 3.16 | 2.51 |  | 1260 |  |  | CN(Cc1nnn[nH]1)C[C@H]1CC2=C(O1)c1cc(F)ccc1Cc1ccccc12 [Compound 125]
37 | 25.1 |  | 316 | 2040 |  |  | CNCC1CC2=C(O1)c1ccccc1Cc1ccc(C#N)cc12 (centres unmarked) [Compound 133]
38 | 12.6 | 6.31 |  | 3160 |  |  | CNC(=N)CN(C)CC1CC2=C(O1)c1cc(F)ccc1Cc1ccccc12 (centres unmarked) [Compound 138]
